Test results from ChEMBL document CHEMBL1157453, “Chrobisiamone A, a new bischromone from Cassia siamea and a biomimetic transformation of 5-acetonyl-7-hydroxy-2-methylchromone into cassiarin A” (Bioorg Med Chem Lett, 2008).
In brackets after ≈: the same amount, converted by molar mass.

system: Plasmodium falciparum; assay: Antiplasmodial activity against Plasmodium falciparum 3D7; assay type: functional, organism-based

| IC50 | SMILES |
| --- | --- |
| 4.5 µg/mL (≈ 19.4 µM) | CC(=O)Cc1cc(O)cc2oc(C)cc(=O)c12 |
| 7.8 µg/mL (≈ 36.4 µM) | Cc1cc2cc(=O)cc3oc(C)cc(o1)c23 [ANHYDROBARAKOL] |
| 2.6 µg/mL (≈ 5.6 µM) | CC(=O)Cc1cc(O)cc2c1C(=O)CC(C)(Cc1cc(=O)c3c(CC(C)=O)cc(O)cc3o1)O2 (stereo not drawn) [CHROBISIAMONE A] |
